The values below come from patent US20190135834A1, “5-SUBSTITUTED AZABENZIMIDAZOLE DERIVATIVE HAVING ???? ACTIVATION ACTION” (Shionogi & Co., Ltd., priority 2016, published 2019).

This assay deals with T1, Human AMPK α2ß2γ1 (Homo sapiens, UniProt O43741+P54646).
T1 construct: The full length cDNAs of human AMPK ß2 (NM_005399.3) and human AMPK α2 (NM_006252.3); The full length cDNAs of human AMPK ß2 (NM_005399.3); 6xHis (N); made in house; host or cells: Escherichia coli BL21 CodonPlus (DE3)-RIL
The assay can be described thus: Test Example 2: evaluation of an activator for AMP-activated protein kinase (AMPK), LabChip mobility shift assay with CaMKK2-phosphorylated enzyme. Format: biochemical. As to conditions: for EC150 (compound concentration showing 150% relative to the control (100%)): FL-Peptide 7 substrate, 25° C., 2 hours; for Emax / Emax (maximum rate of increase in activity within the measurement range): relative to control (100%); for Emax: read-out: Emax (maximum rate of increase in activity within the measurement range). As to the method: The full length cDNAs of human AMPK ß2 (NM_005399.3) and human AMPK α2 (NM_006252.3) were inserted into the MCS1 and MCS2 of the pETDuet-1 vector to prepare a human AMPK ß2 and human AMPK α2 (6× His tag at the 5′ terminus) expressing plasmid. The plasmid was cotransfected with an expression plasmid, in which the full length cDNA of human AMPK γ1 (NM_002733.3) had been inserted into pET28b(+), into BL21 CodonPlus (DE3)-RIL to obtain an expression strain. The expression strain was cultured in TB medium, followed by induction with 0.5 mM IPTG, and cultured at 25° C. for 3 hours and then harvested. After ultrasonication, supernatant was collected and applied to Histrap FF column (GE) and RESOURCE Q column (GE) to prepare 12.5 mg of purified sample containing three types of subunit from 1.8 L of broth.
Preparation method of human CaMKK2 used to impart activity to AMPK An expression vector, in which the full length cDNA of human CAMKK ß (NM_172226.1) had been inserted into pGEX-6P-3, was transfected into BL21 Star (DE3). The expression strain was cultured in TB medium, followed by induction with 0.5 mM IPTG, and cultured at 25° C. for 3 hours and then harvested. After ultrasonication, supernatant was collected and applied to GSTrap FF column (GE) to prepare 14 mg of GST-fused CAMKK ß from 720 ml of broth.
Thus, phosphorylation treatment was carried out as pretreatment.
Human AMPK α2ß2γ1 in an amount to give a conversion rate of approximately 10% by reaction for 2 hours, and CaMKK2 in an amount capable of sufficiently imparting activity to AMPK for one hour were mixed in a buffer solution consisting of a 50 mM HEPES-NaOH buffer solution (pH 7.0), 100 mM NaCl, 5 mM magnesium chloride, 0.1% bovine serum albumin, 0.2 mM sodium orthovanadate(V), 1 mM ethylene glycol-bis(2-aminoethyl ether)-N,N,N′,N′-tetraacetic acid (EGTA), 5 mM disodium ß-glycerophosphate, 1 mM dithiothreitol and 0.2 mM ATP, and the resulting liquid was left to stand at 25° C. for 1 to 1.5 hours to sufficiently phosphorylate AMPK.
After that, to the enzyme liquid, which had been subjected to phosphorylation treatment, a compound dissolved in DMSO was added so as to have a 1% DMSO concentration. The resulting liquid was left to stand for 10 minutes.
To the liquid, a substrate solution consisting of a 50 mM HEPES-NaOH buffer solution (pH 7.0), 100 mM NaCl, 10 mM magnesium chloride, 0.1% bovine serum albumin, 0.2 mM sodium orthovanadate(V), 1 mM ethylene glycol-bis(2-aminoethyl ether)-N,N,N′,N′-tetraacetic acid (EGTA), 5 mM disodium ß-glycerophosphate, 2 mM dithiothreitol, 0.4 mM ATP and 3 μM FL-Peptide 7 (manufactured by Caliper Life Sciences, Inc.) was added in equal amount (10 μl in total). The resulting liquid was allowed to react at 25° C. for 2 hours, and 10 μl of 20 mM EDTA was added thereto to stop the reaction.
To detect phosphorylated fluorescent substrates, the reaction mixture was applied to a measuring device, LabChip EZ Reader II manufactured by Caliper Life Science, Inc., for detecting fluorescence by using differences in mobility due to differences in charge. The setting conditions for the device were pressure, −1.5 PSI; upstream voltage, −2250 V; downstream voltage, −400 V; post sample buffer sip time, 40 seconds; final delay, 120 seconds; and peak order, Product First.
A conversion rate was calculated from the peak heights of the obtained substrate and product. The conversion rate when not containing a compound was used as a control, and a concentration dependent curve was made by plotting the rate of increase in activity to the control at each concentration of a compound.

T1 sequence (P54646 whole entry): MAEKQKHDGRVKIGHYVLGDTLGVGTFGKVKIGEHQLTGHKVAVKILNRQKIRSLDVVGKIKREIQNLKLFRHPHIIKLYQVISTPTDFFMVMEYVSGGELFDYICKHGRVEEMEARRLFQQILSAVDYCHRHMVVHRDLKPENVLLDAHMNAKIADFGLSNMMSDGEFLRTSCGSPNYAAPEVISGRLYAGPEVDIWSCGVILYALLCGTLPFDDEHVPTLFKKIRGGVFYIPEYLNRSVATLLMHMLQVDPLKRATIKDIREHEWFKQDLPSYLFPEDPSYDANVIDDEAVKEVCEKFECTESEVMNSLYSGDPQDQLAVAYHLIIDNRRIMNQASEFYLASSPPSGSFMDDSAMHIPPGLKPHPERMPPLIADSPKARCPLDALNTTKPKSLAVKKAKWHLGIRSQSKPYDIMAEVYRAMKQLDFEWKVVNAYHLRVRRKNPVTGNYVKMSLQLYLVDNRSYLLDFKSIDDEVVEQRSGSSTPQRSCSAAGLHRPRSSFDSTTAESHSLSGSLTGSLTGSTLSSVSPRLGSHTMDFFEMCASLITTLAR
T1 sequence (O43741 whole entry): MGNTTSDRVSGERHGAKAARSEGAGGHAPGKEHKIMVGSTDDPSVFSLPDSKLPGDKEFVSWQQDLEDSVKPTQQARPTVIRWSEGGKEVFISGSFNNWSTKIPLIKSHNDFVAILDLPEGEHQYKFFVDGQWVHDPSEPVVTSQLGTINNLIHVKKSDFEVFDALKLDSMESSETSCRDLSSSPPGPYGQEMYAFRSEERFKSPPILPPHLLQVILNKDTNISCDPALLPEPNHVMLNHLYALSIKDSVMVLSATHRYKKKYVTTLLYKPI
T1 sequence (P54619 whole entry partner): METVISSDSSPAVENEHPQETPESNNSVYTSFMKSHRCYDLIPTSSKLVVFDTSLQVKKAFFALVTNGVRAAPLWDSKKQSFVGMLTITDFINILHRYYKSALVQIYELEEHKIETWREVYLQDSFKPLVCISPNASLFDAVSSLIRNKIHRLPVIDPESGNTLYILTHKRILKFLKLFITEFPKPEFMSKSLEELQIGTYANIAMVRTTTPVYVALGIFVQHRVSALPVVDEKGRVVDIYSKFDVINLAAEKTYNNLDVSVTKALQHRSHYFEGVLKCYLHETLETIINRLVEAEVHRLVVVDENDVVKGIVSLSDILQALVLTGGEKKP

In the case of `O[C@@H]1CO[C@H]2[C@@H]1OC[C@H]2Oc1nc2nc(NC3CCc4cc(OCC5(F)COC5)cc(F)c43)c(Cl)cc2[nH]1` (stereo partly shown) [Compound I-1-99], the “EC150 (compound concentration showing 150% relative to the control (100%))” value was 4.6 nM and the Emax (as a rule, the maximal effect, on the per cent scale that the assay sets) was 422%.

For `OCC/C=C/c1cc(F)c2c(c1)CCC2Nc1nc2nc(O[C@@H]3CO[C@H]4[C@@H]3OC[C@H]4O)[nH]c2cc1Cl` (stereo partly shown) [Compound I-1-100], the “EC150 (compound concentration showing 150% relative to the control (100%))” value stood at 3.5 nM and the Emax was found to be 441%.

Consider `COCCOc1cc(F)c2c(c1)CCC2Nc1nc2nc(O[C@@H]3CO[C@H](CO)C3)[nH]c2cc1Cl` (stereo partly shown) [Compound I-1-104], for which the “EC150 (compound concentration showing 150% relative to the control (100%))” value is 2.3 nM and the Emax was found to be 423%.

Take `COCC(=O)Nc1cc(F)c2c(c1)CCC2Nc1nc2nc(O[C@@H]3CO[C@H]4[C@@H]3OC[C@H]4O)[nH]c2cc1Cl` (stereo partly shown) [Compound I-1-105]: the “EC150 (compound concentration showing 150% relative to the control (100%))” value is listed as 4.1 nM and the Emax stood at 434%.

For `Cn1cc(-c2cc(F)c3c(c2)CCC3Nc2nc3nc(O[C@@H]4CO[C@H]5[C@@H]4OC[C@H]5O)[nH]c3cc2Cl)ccc1=O` (stereo partly shown) [Compound I-1-106], the “EC150 (compound concentration showing 150% relative to the control (100%))” value came out at 1.4 nM and the Emax came out at 462%.

With `O[C@@H]1CO[C@H]2[C@@H]1OC[C@H]2Oc1nc2nc(NC3CCc4cc(-c5cnccn5)cc(F)c43)c(Cl)cc2[nH]1` (stereo partly shown) [Compound I-1-111], the “EC150 (compound concentration showing 150% relative to the control (100%))” value worked out at 4.5 nM and the Emax was determined as 424%.

As for `O[C@@H]1CO[C@H]2[C@@H]1OC[C@H]2Oc1nc2nc(N[C@H]3CCc4cc(O[C@H]5CC[C@@H](O)CC5)cc(F)c43)c(Cl)cc2[nH]1` [Compound I-2-01], the “EC150 (compound concentration showing 150% relative to the control (100%))” value is 1.8 nM and the Emax turned out to be 646%.

In the case of `COCC1CC1c1cc(F)c2c(c1)CC[C@@H]2Nc1nc2nc(O[C@@H]3CO[C@H]4[C@@H]3OC[C@H]4O)[nH]c2cc1Cl` (stereo partly shown) [Compound I-2-02], the “EC150 (compound concentration showing 150% relative to the control (100%))” value turned out to be 2.4 nM and the Emax worked out at 557%.

For the compound `O[C@@H]1CO[C@H]2[C@@H]1OC[C@H]2Oc1nc2nc(NC3CCc4cc(OCCOCC(F)(F)F)cc(F)c43)c(Cl)cc2[nH]1` (stereo partly shown) [Compound I-2-05], the “EC150 (compound concentration showing 150% relative to the control (100%))” value was found to be 6 nM and the Emax stood at 680%.

As for `O[C@@H]1CO[C@H]2[C@@H]1OC[C@H]2Oc1nc2nc(NC3CCc4cc(OCCF)cc(F)c43)c(Cl)cc2[nH]1` (stereo partly shown) [Compound I-2-06], the “EC150 (compound concentration showing 150% relative to the control (100%))” value is 3.6 nM and the “Emax (maximum rate of increase in activity within the measurement range)” value stood at 707%.

With `CCOC/C=C/c1cc(F)c2c(c1)CC[C@@H]2Nc1nc2nc(O[C@@H]3CO[C@H]4[C@@H]3OC[C@H]4O)[nH]c2cc1Cl` [Compound I-2-07], the “EC150 (compound concentration showing 150% relative to the control (100%))” value stood at 2 nM and the Emax turned out to be 727%.

With `CS(C)(=O)=Nc1cc(F)c2c(c1)CC[C@@H]2Nc1nc2nc(O[C@@H]3CO[C@H]4[C@@H]3OC[C@H]4O)[nH]c2cc1Cl` [Compound I-2-08], the “EC150 (compound concentration showing 150% relative to the control (100%))” value was 3.5 nM and the Emax amounted to 688%.

`CC(C)(O)COc1cc(F)c2c(c1)CCC2Nc1nc2nc(O[C@@H]3CO[C@H]4[C@@H]3OC[C@H]4O)[nH]c2cc1Cl` (stereo partly shown) [Compound I-2-09]: the “EC150 (compound concentration showing 150% relative to the control (100%))” value is 3.9 nM and the Emax is 633%.

`N#Cc1cc(F)c2c(c1)CC[C@@H]2Nc1nc2nc(O[C@@H]3CO[C@H]4[C@@H]3OC[C@H]4O)[nH]c2cc1Cl` [Compound I-2-10]: the “EC150 (compound concentration showing 150% relative to the control (100%))” value was 3.4 nM and the Emax was found to be 642%.

Turning to `O[C@@H]1CO[C@H]2[C@@H]1OC[C@H]2Oc1nc2cc(Cl)c(NC3CCc4cc(OCCOC(F)F)cc(F)c43)nc2[nH]1` (stereo partly shown) [Compound I-2-14], the “EC150 (compound concentration showing 150% relative to the control (100%))” value is on record as 5.6 nM and the Emax was found to be 594%.

In the case of `COCn1cc(-c2cc(F)c3c(c2)CC[C@@H]3Nc2nc3[nH]c(O[C@@H]4CO[C@H]5[C@@H]4OC[C@H]5O)nc3cc2Cl)cn1` [Compound I-2-17], the “EC150 (compound concentration showing 150% relative to the control (100%))” value stood at 1.4 nM and the Emax was determined as 720%.

In the case of `O[C@@H]1CO[C@H]2[C@@H]1OC[C@H]2Oc1nc2nc(NC3CCc4cc(-c5ccoc5)cc(F)c43)c(Cl)cc2[nH]1` (stereo partly shown) [Compound I-2-21], the “EC150 (compound concentration showing 150% relative to the control (100%))” value is listed as 4.9 nM and the Emax was 650%.

For the compound `Cn1nccc1-c1cc(F)c2c(c1)CCC2Nc1nc2nc(O[C@@H]3CO[C@H]4[C@@H]3OC[C@H]4O)[nH]c2cc1Cl` (stereo partly shown) [Compound I-2-23], the “EC150 (compound concentration showing 150% relative to the control (100%))” value is listed as 12 nM and the Emax was 709%.

With `COc1ccc(-c2cc(F)c3c(c2)CCC3Nc2nc3nc(O[C@@H]4CO[C@H]5[C@@H]4OC[C@H]5O)[nH]c3cc2Cl)cn1` (stereo partly shown) [Compound I-2-26], the “EC150 (compound concentration showing 150% relative to the control (100%))” value was 7.1 nM and the “Emax (maximum rate of increase in activity within the measurement range)” value is 669%.

With `O=S(=O)(NCCOc1cc(F)c2c(c1)CCC2Nc1nc2nc(O[C@@H]3CO[C@H]4[C@@H]3OC[C@H]4O)[nH]c2cc1Cl)C(F)F` (stereo partly shown) [Compound I-2-32], the “EC150 (compound concentration showing 150% relative to the control (100%))” value is given as 9 nM and the Emax stood at 714%.

Take `COCC(=O)NCCOc1cc(F)c2c(c1)CCC2Nc1nc2nc(O[C@@H]3CO[C@H]4[C@@H]3OC[C@H]4O)[nH]c2cc1Cl` (stereo partly shown) [Compound I-2-33]: the “EC150 (compound concentration showing 150% relative to the control (100%))” value came to 3 nM and the Emax turned out to be 704%.

Turning to `O=C(NCCOc1cc(F)c2c(c1)CCC2Nc1nc2nc(O[C@@H]3CO[C@H]4[C@@H]3OC[C@H]4O)[nH]c2cc1Cl)C1CCC1` (stereo partly shown) [Compound I-2-34], the “EC150 (compound concentration showing 150% relative to the control (100%))” value was found to be 6.6 nM and the Emax is 719%.

On to `CS(=O)(=O)NCCOc1cc(F)c2c(c1)CCC2Nc1nc2nc(O[C@@H]3CO[C@H]4[C@@H]3OC[C@@H]4F)[nH]c2cc1Cl` (stereo partly shown) [Compound I-2-35], for which the “EC150 (compound concentration showing 150% relative to the control (100%))” value was 10 nM and the Emax came to 679%.

Take `CC(C)OCCOc1cc(F)c2c(c1)CCC2Nc1nc2nc(O[C@@H]3CO[C@H]4[C@@H]3OC[C@H]4O)[nH]c2cc1Cl` (stereo partly shown) [Compound I-2-36]: the “EC150 (compound concentration showing 150% relative to the control (100%))” value turned out to be 3.9 nM and the maximal response (Emax) is 698%.

Take `CC(C)(O)/C=C/c1cc(F)c2c(c1)CCC2Nc1nc2nc(O[C@@H]3CO[C@H]4[C@@H]3OC[C@H]4O)[nH]c2cc1Cl` (stereo partly shown) [Compound I-2-37]: the “EC150 (compound concentration showing 150% relative to the control (100%))” value amounted to 3.2 nM and the Emax was found to be 645%.

As to `OC1CC=C(c2cc(F)c3c(c2)CCC3Nc2nc3nc(O[C@@H]4CO[C@H]5[C@@H]4OC[C@H]5O)[nH]c3cc2Cl)CC1` (stereo partly shown) [Compound I-2-38], the “EC150 (compound concentration showing 150% relative to the control (100%))” value is listed as 3.1 nM and the Emax is 725%.
